Measurements from article PMC12355328 (ACS Omega, 2025).
In brackets after ≈: the same amount, converted by molar mass. Residues, ends and D or L forms follow the SMILES beside them.

Tests used:
[1] = Circular dichroism spectroscopy; assay type: physicochemical; details: 50 μM, 100 mM NaF, 10 mM KH2PO4, pH 7.5; averaged of three repeats, 298 K
[2] = Dye-leakage assay, POPE/POPG; details: 100 μM POPE/POPG LUV; 298 K
[3] = Dye-leakage assay, POPG/TOCL; details: 100 μM POPG/TOCL LUV; 298 K
E. coli ATCC25922 = assay: MIC assay, ciprofloxacin-sensitive E. coli; assay type: cell-based, Escherichia coli; details: MHB, 6 h, OD600, concentration at which growth surpassed 10%
E. coli BAA 3051 = assay: MIC assay, ciprofloxacin-resistant E. coli; assay type: cell-based, Escherichia coli; details: E. coli BAA 3051 (ciprofloxacin-resistant); MHB, 6 h, OD600; concentration at which growth surpassed 10%
DnaK = DnaK (Escherichia coli, UniProt P0A6Y8); assay: DnaK binding assay
DNA gyrase = DNA gyrase (Escherichia coli, UniProt P0AES4+P0AES6); assay: DNA gyrase inhibition; assay type: biochemical

DnaK, sequence (P0A6Y8 whole entry): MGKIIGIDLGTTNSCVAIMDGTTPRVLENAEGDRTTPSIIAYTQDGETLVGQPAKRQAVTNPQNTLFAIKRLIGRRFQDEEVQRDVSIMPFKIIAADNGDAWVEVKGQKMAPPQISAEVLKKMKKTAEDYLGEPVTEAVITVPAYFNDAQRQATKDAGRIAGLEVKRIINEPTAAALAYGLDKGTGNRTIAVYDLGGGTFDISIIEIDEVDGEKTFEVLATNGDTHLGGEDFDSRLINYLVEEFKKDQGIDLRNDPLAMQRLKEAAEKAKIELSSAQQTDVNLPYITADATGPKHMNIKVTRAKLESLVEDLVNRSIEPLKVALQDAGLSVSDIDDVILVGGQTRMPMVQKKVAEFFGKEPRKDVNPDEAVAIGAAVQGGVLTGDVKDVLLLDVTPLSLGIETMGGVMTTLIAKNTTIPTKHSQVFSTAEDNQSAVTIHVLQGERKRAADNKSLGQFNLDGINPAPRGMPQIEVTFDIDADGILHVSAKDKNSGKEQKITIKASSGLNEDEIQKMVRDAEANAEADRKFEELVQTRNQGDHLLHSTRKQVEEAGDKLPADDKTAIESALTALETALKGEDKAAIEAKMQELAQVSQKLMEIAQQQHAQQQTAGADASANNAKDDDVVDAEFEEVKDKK

| CD: conformation / aggregation in buffer (in words) [1] | SMILES | leakage profile (in words) [2] | leakage profile (in words) [3] | MIC (E. coli ATCC25922) [µM] | MIC (E. coli BAA 3051) [µM] | IC50 (DnaK) [nM] | Ki (DnaK) [nM] | IC50 (DNA gyrase) [nM] |
| --- | --- | --- | --- | --- | --- | --- | --- | --- |
| not optically active in CD | O=C(O)c1cn(C2CC2)c2cc(N3CCNCC3)c(F)cc2c1=O [ciprofloxacin] | showed a similar trend to POPC | showed a similar trend as in POPC |  |  |  |  |  |
|  | CC[C@H](C)[C@H](NC(=O)[C@H](CCCNC(=N)N)NC(=O)[C@H](CCCNC(=N)N)NC(=O)[C@@H]1CCCN1C(=O)[C@@H]1CCCN1C(=O)[C@H](CCCNC(=N)N)NC(=O)[C@@H]1CCCN1C(=O)[C@H](CCCNC(=N)N)NC(=O)[C@@H]1CCCN1C(=O)[C@H](CC(C)C)NC(=O)[C@H](Cc1ccc(O)cc1)NC(=O)[C@@H]1CCCN1C(=O)[C@@H]1CCCN1C(=O)[C@H](CCCCN)NC(=O)[C@H](CC(=O)O)NC(=O)[C@@H](N)C(C)C)C(=O)N[C@@H](Cc1ccc(O)cc1)C(=O)N[C@@H](CC(N)=O)C(=O)N[C@@H](CCCNC(=N)N)C(N)=O [oncocin] (H-VDKPPYLPRPRPPRRIYNR-NH2) |  |  | 1 (≈ 2.39 µg/mL) | 1 (≈ 2.39 µg/mL) | 1540 | 390 | > 10000 |
